# Measurements published in ChEMBL document CHEMBL3885861, “Open TG-GATES”.
# Organism: Rattus norvegicus
# Experiment: Open TG-GATES - Regimen: Single
# Type: toxicity, organism-based, Sprague-Dawley
# Design: regimen Single, gender Male, age 6 weeks
# Conditions: in vivo, po, 0 mg/kg, route gavage, dose level Control; for APTT / Bas / Eos / Fbg / Hb / Ht / Lym / MCH / MCHC / MCV / Mono / Neu / Plat / RBC / Ret / WBC: tissue Blood; for KIDNEY_L / KIDNEY_R / KIDNEY_TOTAL: tissue Kidney; for LIVER: tissue Liver; for ALP / ALT / AST / BUN / CRE / Ca / Cl / DBIL / GLC / IP / K / LDH / Na / PL / RALB / TBIL / TC / TG / TP / gamma-GTP: tissue Plasma
smiles,measurement,setting,value
CC(=O)Oc1ccccc1C(=O)O [ASPIRIN],TERMINAL_BW,3 h,221 g
same,APTT,3 h,17.5 s
same,Bas,3 h,0.2%
same,Eos,3 h,1.2%
same,Fbg,3 h,226.6 mg/dL
same,Hb,3 h,13.4 g/dL
same,Ht,3 h,37.1%
same,Lym,3 h,75.4%
same,MCH,3 h,22 pg
same,MCHC,3 h,36.1%
same,MCV,3 h,60.8 fL
same,Mono,3 h,2.2%
same,Neu,3 h,20%
same,Plat,3 h,118.6 x10_4/uL
same,RBC,3 h,611.4 x10_4/ul
same,Ret,3 h,8%
same,WBC,3 h,87.8 x10_2/uL
same,KIDNEY_L,3 h,1 g
same,KIDNEY_R,3 h,1 g
same,KIDNEY_TOTAL,3 h,2 g
same,LIVER,3 h,9.9 g
same,ALP,3 h,895.2 IU/L
same,ALT,3 h,34.8 IU/L
same,AST,3 h,72.4 IU/L
same,BUN,3 h,9.8 mg/dL
same,CRE,3 h,0.4 mg/dL
same,Ca,3 h,10.7 mg/dL
same,Cl,3 h,103.8 meq/L
same,DBIL,3 h,0.066 mg/dL
same,GLC,3 h,198.2 mg/dL
same,IP,3 h,9.6 mg/dL
same,K,3 h,3.9 meq/L
same,LDH,3 h,186.2 IU/L
same,Na,3 h,142.4 meq/L
same,PL,3 h,138.4 mg/dL
same,RALB,3 h,3.4 g/dL
same,TBIL,3 h,0.1 mg/dL
same,TC,3 h,77 mg/dL
same,TG,3 h,48.8 mg/dL
same,TP,3 h,5.5 g/dL
same,gamma-GTP,3 h,1.2 IU/L
same,TERMINAL_BW,6 h,217.3 g
same,APTT,6 h,17.7 s
same,Bas,6 h,0%
same,Eos,6 h,0.8%
same,Fbg,6 h,235 mg/dL
same,Hb,6 h,13.9 g/dL
same,Ht,6 h,38.3%
same,Lym,6 h,77.2%
same,MCH,6 h,22 pg
same,MCHC,6 h,36.3%
same,MCV,6 h,60.5 fL
same,Mono,6 h,2.4%
same,Neu,6 h,18.4%
same,Plat,6 h,131.2 x10_4/uL
same,RBC,6 h,632.8 x10_4/ul
same,Ret,6 h,7.8%
same,WBC,6 h,104.9 x10_2/uL
same,KIDNEY_L,6 h,0.9 g
same,KIDNEY_R,6 h,0.9 g
same,KIDNEY_TOTAL,6 h,1.9 g
same,LIVER,6 h,9 g
same,ALP,6 h,815 IU/L
same,ALT,6 h,32 IU/L
same,AST,6 h,68.4 IU/L
same,BUN,6 h,9 mg/dL
same,CRE,6 h,0.4 mg/dL
same,Ca,6 h,10.6 mg/dL
same,Cl,6 h,103.2 meq/L
same,DBIL,6 h,0.07 mg/dL
same,GLC,6 h,185.8 mg/dL
same,IP,6 h,9.5 mg/dL
same,K,6 h,3.8 meq/L
same,LDH,6 h,208.8 IU/L
same,Na,6 h,141.2 meq/L
same,PL,6 h,139.2 mg/dL
same,RALB,6 h,3.4 g/dL
same,TBIL,6 h,0.1 mg/dL
same,TC,6 h,80.4 mg/dL
same,TG,6 h,62.8 mg/dL
same,TP,6 h,5.5 g/dL
same,gamma-GTP,6 h,1 IU/L
same,TERMINAL_BW,9 h,214.9 g
same,APTT,9 h,17.3 s
same,Bas,9 h,0%
same,Eos,9 h,0.8%
same,Fbg,9 h,224 mg/dL
same,Hb,9 h,14 g/dL
same,Ht,9 h,38.7%
same,Lym,9 h,80.2%
same,MCH,9 h,22.2 pg
same,MCHC,9 h,36.3%
same,MCV,9 h,61.1 fL
same,Mono,9 h,2.4%
same,Neu,9 h,15.2%
same,Plat,9 h,121.8 x10_4/uL
same,RBC,9 h,632.8 x10_4/ul
same,Ret,9 h,8%
same,WBC,9 h,88.9 x10_2/uL
same,KIDNEY_L,9 h,0.9 g
same,KIDNEY_R,9 h,0.9 g
same,KIDNEY_TOTAL,9 h,1.8 g
same,LIVER,9 h,8.6 g
same,ALP,9 h,795.2 IU/L
same,ALT,9 h,31.2 IU/L
same,AST,9 h,64.8 IU/L
same,BUN,9 h,9.4 mg/dL
same,CRE,9 h,0.4 mg/dL
same,Ca,9 h,10.4 mg/dL
same,Cl,9 h,104 meq/L
same,DBIL,9 h,0.066 mg/dL
same,GLC,9 h,206.6 mg/dL
same,IP,9 h,10 mg/dL
same,K,9 h,3.8 meq/L
same,LDH,9 h,205.6 IU/L
same,Na,9 h,141.4 meq/L
same,PL,9 h,128.6 mg/dL
same,RALB,9 h,3.4 g/dL
same,TBIL,9 h,0.1 mg/dL
same,TC,9 h,69.2 mg/dL
same,TG,9 h,46.2 mg/dL
same,TP,9 h,5.6 g/dL
same,gamma-GTP,9 h,1.2 IU/L
same,TERMINAL_BW,24 h,234.6 g
same,APTT,24 h,18.4 s
same,Bas,24 h,0.8%
same,Eos,24 h,1%
same,Fbg,24 h,222.8 mg/dL
same,Hb,24 h,13.8 g/dL
same,Ht,24 h,37.7%
same,Lym,24 h,77.2%
same,MCH,24 h,22.6 pg
same,MCHC,24 h,36.6%
same,MCV,24 h,61.7 fL
same,Mono,24 h,2.8%
same,Neu,24 h,17.8%
same,Plat,24 h,132 x10_4/uL
same,RBC,24 h,611.8 x10_4/ul
same,Ret,24 h,7.1%
same,WBC,24 h,109.6 x10_2/uL
same,KIDNEY_L,24 h,1 g
same,KIDNEY_R,24 h,1 g
same,KIDNEY_TOTAL,24 h,2 g
same,ALP,24 h,1023.4 IU/L
same,ALT,24 h,39 IU/L
same,AST,24 h,72.4 IU/L
same,BUN,24 h,15.8 mg/dL
same,CRE,24 h,0.4 mg/dL
same,Ca,24 h,10.6 mg/dL
same,Cl,24 h,103.6 meq/L
same,DBIL,24 h,0.062 mg/dL
same,GLC,24 h,204.2 mg/dL
same,IP,24 h,7.8 mg/dL
same,K,24 h,3.9 meq/L
same,LDH,24 h,207.2 IU/L
same,Na,24 h,141.2 meq/L
same,PL,24 h,153.4 mg/dL
same,RALB,24 h,3.5 g/dL
same,TBIL,24 h,0.1 mg/dL
same,TC,24 h,74 mg/dL
same,TG,24 h,124.4 mg/dL
same,TP,24 h,5.6 g/dL
same,gamma-GTP,24 h,1.2 IU/L
